Assay results published in patent US12606559B2, “JAK inhibitor compounds, methods for synthesizing same and use thereof” (GALDERMA HOLDING SA, priority 2020, dated 2026).
Values joined by “and” are separate entries in the source; they are usually repeats but may differ in a detail not shown here. Identical values can stand only once. Like-named read-outs stand apart in the source and are kept apart here.

Key:
Recombinant JAK1 = biological target: T1, Recombinant JAK1 (Homo sapiens, UniProt P23458); test: In vitro enzyme assay (Cisbio kinase assay), JAK1; type: biochemical; conditions: ATP 300 μM; read-out: Enzymatic assay: IC50 JAK1
T1 construct: purchased Life Technologies PV4775

[1] = system: IL-6 induced Phospho-STAT3 (Tyr705) in TF-1 cells; test: In vitro cellular pSTAT3 assay, IL-6 stimulated TF-1 cells; type: cell-based; conditions: Homo sapiens
IL6 signalling in hWB = test: hWB assay, IL6; type: cell-based, human; conditions: human whole blood; read-out: hWB assay: IC50 IL6
Chrom logD pH 7.4 = type: physicochemical
[2] = Kinetic aqueous solubility; type: physicochemical
[3] = Thermodynamic solubility PG_H2O pH 6 2/8; type: physicochemical; conditions: PG/H2O 2/8, pH 6
[4] = Protein binding analysis (RED), human plasma; type: in vitro ADME; conditions: 5 μM, RED 4 h
Description: (§1) The protein binding was assessed in plasma of Human, male balb-c mice, male Wistar Han rat, male Gottingen minipig by rapid equilibrium dialysis (RED) devices. After the plasma and buffer phosphate 50 mM pH7.4 were equilibrated at 37° C., the compound was added to plasma to reach a final concentration of 5 μM. An aliquot of plasma was withdrawn immediately. Equilibration under mild agitation was continued for 4 h. The plasma and buffer were sampled and samples were quenched with 4 volumes of acetonitrile and centrifuged. Supernatant was quantified in HPLC/MS/MS to calculate the recovery and the percentage of compound dissolved in the buffer (unbound) and bound to plasma proteins.

[5] = Protein binding analysis (RED), rat plasma; type: in vitro ADME, male Wistar Han rat; conditions: 5 μM, RED 4 h
Description: as §1

[6] = Protein binding analysis (RED), mouse plasma; type: in vitro ADME, male balb-c mice; conditions: 5 μM, RED 4 h
Description: as §1

[7] = Protein binding analysis (RED), minipig plasma; type: in vitro ADME; conditions: male, Gottingen, pH 7.4, RED 4 h, read-out: minipig FU
Description: as §1

[8] = Intrinsic clearance in human hepatocytes; type: in vitro ADME; conditions: 2.5 μM
Description: (§2) The intrinsic clearance was assessed in cryopreserved Hepatocytes obtained by Human livers donors of mix gender pooled together, male balb-c mouse, male Wistar Han rats and male Göttingen minipig, by looking at the parent compound disappearance. The incubations were performed using a final concentration of viable cells of 1 million/ml (viability above 70%) and test item of 2.5 μM. Incubations were followed up to 2 h. Aliquotes were withdrawn at different time points and reaction quenched with acetonitrile. After centrifugation the supernatant was analyzed by HPLC/MS to quantify the remaining amount of parent in comparison with time 0. The clearance was calculated by fitting the log of the percentage remaining with Graphpad Prism ver.7.

[9] = Intrinsic clearance in rat hepatocytes; type: in vitro ADME, male Wistar Han rats; conditions: 2.5 μM
Description: as §2

[10] = Intrinsic clearance in mouse hepatocytes; type: in vitro ADME, male balb-c mouse; conditions: 2.5 μM
Description: as §2

[11] = Intrinsic clearance in minipig hepatocytes; type: in vitro ADME, male Göttingen minipig; conditions: 2.5 μM
Description: as §2

[12] = In vivo pharmacokinetic analysis in rat, iv; design: species or system male Wistar Han rat; conditions: iv 1 mg/kg; for clearance / Vd / half-life: male, Wistar Han, rat, whole blood; for clearance: blood, read-out: iv PK rat: Cl; for Vd: read-out: iv PK rat: Vd; for half-life: read-out: iv PK rat: t½ (converted)
Description: One male Wistar Han rat. Compound was administered intravenously to fed animal at a target dose of 1 mg/kg, dose volume: 2 mL/kg, in DMSO/hydroxypropyl-beta-cyclodextrin 20% in phosphate buffer 60 mM pH 7 (5:95). Blood samples were collected at various time points. Blood samples were then assayed using a method based upon protein precipitation with acetonitrile followed by LC/MS/MS analysis. Non-compartmental methods were used for pharmacokinetic analysis of blood concentration versus time data

[13] = In vivo pharmacokinetic analysis in minipig, iv; design: species or system male Göttingen minipigs; conditions: iv 1 mg/kg; for clearance: male, Göttingen, minipig, whole blood, blood, read-out: iv PK minipig: Cl
Description: Three male Göttingen minipigs. Compound was administered intravenously to fed animals at a target dose of 1 mg/kg, dose volume 1 mL/kg, in DMSO: hydroxypropyl-β-cyclodextrin 20% in phosphate buffer 60 mM pH 7 (5:95). Blood samples were collected at various time points. Blood samples were then assayed using a method based upon protein precipitation with acetonitrile followed by LC/MS/MS analysis. Non-compartmental methods were used for pharmacokinetic analysis of blood concentration versus time data.

CYP3A4 = biological target: T2, CYP3A4 (Homo sapiens, UniProt P08684); test: CYP3A inhibition in human liver microsomes; type: in vitro ADME
T2 construct: assessed in Human pooled liver microsomes of mixed gender; from tissue; host or cells: human pooled liver microsomes

panel of 403 kinases = test: Kinase selectivity scores S35 / S1 @ 10 μM (403 kinases); type: binding
3T3 murine fibroblasts = test: Phototoxicity, neutral red uptake; type: cell-based; conditions: 3T3 fibroblasts, 7 J/cm2 UVA/UVB
Description: Phototoxicity was evaluated in 3T3 murine fibroblasts. Cells were incubated with different concentrations of test compounds. One plate was then exposed to a dose of 7 J/cm2 (UVA/UVB mimicking usual solar exposure) whereas the other plate was kept in the dark. The treatment medium was then replaced with culture medium and after 24 h cell viability was determined by Neutral red uptake. Concentration leading to 50% decrease of viability was calculated in the absence and in the presence of irradiation. The PIF (photo irritation factor) ratio was then calculated: […]).

[14] = system: 44 targets (binding and enzyme/uptake assays); test: CEREP Safety Screen-44
Description: An in vitro pharmacology assay was conducted to assess the capability of the compounds to interact with different pharmacological targets when tested at 10 μM in different binding and enzyme/uptake assays. The included targets are indicative of potential effects in major organs and drug-drug interactions.
Compound binding was calculated as a % inhibition of the binding of a radioactively labelled ligand specific for each target. […] […].

[15] = TF-1, cellular assay IL6, read-out: Free IC50
[16] = TF-1 cells, IL-6 100 ng/ml, pSTAT3, read-out: Cellular Assay: IC50 IL6
[17] = midazolam, read-out: IC50 CYP3A4 mid.
[18] = testosterone, read-out: IC50 CYP3A4 testo.

T2 sequence (P08684 2-503): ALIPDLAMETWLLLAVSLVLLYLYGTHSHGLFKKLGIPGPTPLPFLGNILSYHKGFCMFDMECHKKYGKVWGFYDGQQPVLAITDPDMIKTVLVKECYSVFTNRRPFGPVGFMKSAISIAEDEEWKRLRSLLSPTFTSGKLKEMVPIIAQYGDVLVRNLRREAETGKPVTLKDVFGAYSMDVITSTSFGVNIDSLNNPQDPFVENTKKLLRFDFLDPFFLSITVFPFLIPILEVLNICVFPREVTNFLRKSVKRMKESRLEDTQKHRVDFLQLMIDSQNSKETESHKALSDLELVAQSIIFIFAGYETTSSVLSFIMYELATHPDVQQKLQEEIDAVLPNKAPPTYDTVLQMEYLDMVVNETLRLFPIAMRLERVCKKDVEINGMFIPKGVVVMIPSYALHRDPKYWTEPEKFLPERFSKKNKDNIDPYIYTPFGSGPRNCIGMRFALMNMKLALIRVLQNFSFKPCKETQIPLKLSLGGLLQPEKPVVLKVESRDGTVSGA
T1 sequence (P23458 whole entry): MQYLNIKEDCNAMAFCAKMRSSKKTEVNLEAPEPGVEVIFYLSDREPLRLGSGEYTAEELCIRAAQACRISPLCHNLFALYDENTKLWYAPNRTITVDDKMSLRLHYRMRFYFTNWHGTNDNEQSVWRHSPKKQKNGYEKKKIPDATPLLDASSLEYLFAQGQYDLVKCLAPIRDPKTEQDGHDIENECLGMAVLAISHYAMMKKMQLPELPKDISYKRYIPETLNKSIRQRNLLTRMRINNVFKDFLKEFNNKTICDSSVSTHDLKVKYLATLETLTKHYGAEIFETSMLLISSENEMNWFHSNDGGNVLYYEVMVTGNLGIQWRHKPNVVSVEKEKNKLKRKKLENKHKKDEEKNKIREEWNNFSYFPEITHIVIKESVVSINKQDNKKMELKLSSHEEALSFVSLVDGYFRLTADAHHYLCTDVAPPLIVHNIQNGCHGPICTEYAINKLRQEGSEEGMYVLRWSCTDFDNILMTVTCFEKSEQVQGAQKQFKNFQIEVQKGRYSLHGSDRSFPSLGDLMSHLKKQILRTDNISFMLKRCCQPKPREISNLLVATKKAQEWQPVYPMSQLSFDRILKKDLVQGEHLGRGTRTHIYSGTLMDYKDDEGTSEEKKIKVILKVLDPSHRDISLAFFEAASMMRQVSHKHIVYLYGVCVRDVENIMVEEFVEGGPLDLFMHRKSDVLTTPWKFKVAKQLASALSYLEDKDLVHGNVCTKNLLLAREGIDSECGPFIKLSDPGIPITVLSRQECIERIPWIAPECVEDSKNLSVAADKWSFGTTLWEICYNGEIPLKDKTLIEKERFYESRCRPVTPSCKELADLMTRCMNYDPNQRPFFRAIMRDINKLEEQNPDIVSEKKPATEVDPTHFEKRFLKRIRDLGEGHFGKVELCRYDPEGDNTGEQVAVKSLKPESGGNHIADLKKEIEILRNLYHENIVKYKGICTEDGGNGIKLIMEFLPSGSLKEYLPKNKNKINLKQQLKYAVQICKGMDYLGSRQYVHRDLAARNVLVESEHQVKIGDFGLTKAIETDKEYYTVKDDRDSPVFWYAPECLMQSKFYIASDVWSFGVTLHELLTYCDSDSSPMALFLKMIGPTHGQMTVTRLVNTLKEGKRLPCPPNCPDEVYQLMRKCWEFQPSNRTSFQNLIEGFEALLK

Structure (SMILES)	IC50 (Recombinant JAK1)	IC50 [1, 15]	IC50 [1, 16]	IC50 (IL6 signalling in hWB)	chromatographic logD (Chrom logD pH 7.4)	Kinetic aq sol [2]	Thermodynamic sol PG_H2O pH 6 2/8 [3]	hFU [4]	rFU [5]	mFU [6]	fraction unbound at 4 h, 5 μM [7]	Intr. Clear. h heps [8]	Intr. Clear. rheps [9]	Intr. Clear. mheps [10]	Intr. Clear. minipig heps [11]	iv PK rat: Cl (value in brackets, %) [12]	clearance [12]	Vd [12]	half-life [12]	iv PK minipig: Cl (value in brackets, %) [13]	further results
CC1(C)CCN(C(=O)C[C@H]2C[C@@H](Nc3c(C#N)cnc4[nH]ccc34)C2)CC1 [Compound A, 4-(((cis)-3-(2-(4,4-dimethylpiperidin-1-yl)-2-oxoethyl)cyclobutyl)amino)-1H-pyrrolo[2,3-b]pyridine-5-carbonitrile]	3 nM	367 nM	11 nM	1300 nM	2.7	15 µM	454 microM and 0.17 mg/mL	4.4%	3.6%	5.2%	0.1	264 microL/min/10 6 cells	> 152 microL/min/10 6 cells	215 microL/min/10 6 cells	> 300 microL/min/10 6 cells	46%	36 mL/min/kg	1.4 L/kg	32.4 min	111%	clearance [13]: 31 mL/min/kg; IC50 (CYP3A4; [17]): 3600 nM; IC50 (CYP3A4; [18]): 1500 nM; Selectivity @ 10 μM: number of kinases out of 403 (panel of 403 kinases): 24/403; Phototox (3T3 murine fibroblasts): Neg/Neg; Safety panel (Cerep): 44 targets % inh @ 10 microM, Nb of targets > 50% inh ([14]; 10 microM): 1/44
CC1CCN(C(=O)C[C@H]2C[C@@H](Nc3c(C#N)cnc4[nH]ccc34)C2)CC1 [Compound B, 4-(((cis)-3-(2-(4-Methylpiperidin-1-yl)-2-oxoethyl)cyclobutyl)amino)-1H-pyrrolo[2,3-b]pyridine-5-carbonitrile]	4 nM	275 nM	11 nM	6900 nM	2.2	35 µM	223 microM and 0.08 mg/mL	5.6%	2.8%	5.1%	0.083	147 microL/min/10 6 cells	134 microL/min/10 6 cells	> 300 microL/min/10 6 cells	248 microL/min/10 6 cells	46%	36 mL/min/kg	0.8 L/kg	15.6 min	97%	clearance [13]: 27 mL/min/kg; IC50 (CYP3A4; [17]): 9400 nM; IC50 (CYP3A4; [18]): 5600 nM; Selectivity @ 10 μM: number of kinases out of 403 (panel of 403 kinases): 19/403; Phototox (3T3 murine fibroblasts): Neg/Neg; Safety panel (Cerep): 44 targets % inh @ 10 microM, Nb of targets > 50% inh ([14]; 10 μM): 0/44
